pIC50: −log10 of the molar value.

Holding throughout (assay type): functional, cell-based
The test system of test [1] is SNU-449. Description: Cytotoxicity against human SNU-449 cells assessed as inhibition of cell growth.
For test [2], the system named is MCF7. Description: Cytotoxicity against human MCF7 cells assessed as inhibition of cell growth.
Test [3] concerns ASPC1. Description: Cytotoxicity against human ASPC1 cells harboring KRAS G12D mutant assessed as inhibition of cell growth.

`Cc1cc2c(c(=O)o1)[C@@]1(C)C=CC(=O)[C@H]1[C@@H](OC[C@H]1C(=O)CC[C@@H]1C)O2`: the pIC50 is 5.92 in test [1], 6.10 in test [2] and 5.03 in test [3].
The like results for `Cc1cc2c(c(=O)o1)[C@]1(C)C=CC(=O)[C@@H]1[C@H](OC[C@H]1C(=O)CC[C@@H]1C)O2` were, in that order, below 5.00, below 5.00 and below 5.00.
Take `CO[C@@H]1Oc2cc(C)oc(=O)c2[C@]2(C)C=CC(=O)[C@H]12`: the pIC50 in test [1], in test [2] and in test [3] was below 5.00 in each case.
`C=C1[C@@H](O)C[C@H]2Oc3cc(C)oc(=O)c3[C@@]12C`: the pIC50 in test [1] is 5.57; in test [2] it was 6.70; in test [3], 5.77.
As for `CCO[C@@H]1Oc2cc(C)oc(=O)c2[C@]2(C)C=CC(=O)[C@H]12`, the results for the pIC50 in test [1], in test [2] and in test [3] were 5.85, 6.15 and 5.66, respectively.
As for `Cc1cc2c(c(=O)o1)[C@@]1(C)C[C@H](O)C[C@H]1O2`, the pIC50 in test [1] is below 5.00; in test [2], 5.34; in test [3], 5.82.
In the same order, the values of `Cc1cc2c(c(=O)o1)[C@]1(C)C=CC(=O)[C@@H]1[C@H](O)O2` are 5.23, 5.28 and 5.77.
The like results for `Cc1cc2c(c(=O)o1)[C@@]1(C)[C@H](CO)[C@@H](O)C[C@H]1O2` were, in that order, 5.06, 5.26 and below 5.00.
In the same order, the values of `Cc1cc2c(c(=O)o1)[C@@]1(C)CC(=O)C[C@H]1O2` (racemic) are below 5.00, 5.00 and 5.54.
In the case of `Cc1nc(Nc2ncc(C(=O)Nc3c(C)cccc3Cl)s2)cc(N2CCN(CCO)CC2)n1` [DASATINIB ANHYDROUS], the pIC50 was below 5.00 in test [2] and 5.48 in test [3].
As for `Nc1ccn([C@@H]2O[C@H](CO)[C@@H](O)C2(F)F)c(=O)n1` [GEMCITABINE], the results for the negative logarithm of the IC50 (pIC50) in test [1] and in test [3] were below 5.00 and 6.30, respectively.

What is called pIC50 is −log10 of the IC50, conventionally taken in molar units.

(Values after ChEMBL document CHEMBL5532711, “Peniapyrones A-I, Cytotoxic Tricyclic-Fused α-Pyrone Derivatives from an Endophytic Penicillium brefeldianum F4a” (J Nat Prod, 2024).)
